Key:
[1] = test system: pentagastrin-stimulated acid secretion of the perfused rat stomach; assay: Secretion-inhibiting action on the perfused rat stomach (pentagastrin-stimulated acid secretion, intraduodenal administration in vivo); details: iv, dose 2 μmol/kg i.d., anesthetized female CD rat, pentagastrin 1 μg/kg i.v. infusion
Description: Testing of the Secretion-Inhibiting Action on the Perfused Rat Stomach
In Table A which follows, the influence of the compounds of the formula 1 according to the invention on the pentagastrin-stimulated acid secretion of the perfused rat stomach after intraduodenal administration in vivo is shown.
The abdomen of anesthetized rats (CD rat, female, 200-250 g; 1.5 g/kg i.m. urethane) was opened after tracheotomy by a median upper abdominal incision and a PVC catheter was fixed transorally in the esophagus and another via the pylorus such that the ends of the tubes just projected into the gastric lumen. The catheter leading from the pylorus led outward into the right abdominal wall through a side opening.
After thorough rinsing (about 50-100 ml), warm (37° C.) physiological NaCl solution was continuously passed through the stomach (0.5 ml/min, pH 6.8-6.9; Braun-Unita I). The pH (pH meter 632, glass electrode EA 147; φ=5 mm, Metrohm) and, by titration with a freshly prepared 0.01N NaOH solution to pH 7 (Dosimat 665 Metrohm), the secreted HCl were determined in the effluent in each case collected at an interval of 15 minutes.
The gastric secretion was stimulated by continuous infusion of […] (=1.65 ml/h) of i.v. pentagastrin (left femoral vein) about 30 min after the end of the operation (i.e. after determination of 2 preliminary fractions). The substances to be tested were administered intraduodenally in a 2.5 ml/kg liquid volume 60 min after the start of the continuous pentagastrin infusion. The body temperature of the animals was kept at a constant 37.8-38° C. by infrared irradiation and heat pads (automatic, stepless control by means of a rectal temperature sensor).

Row | Compound | melting point [°C] | inhibition in vivo at 2 µmol/kg [1] [%]
1 | Cc1nc2c3c(ccc2[nH]1)[C@@H](O)[C@H](O)[C@@H](c1ccccc1)O3 [Example 10, (6R,7S,8R)-6,7-Dihydroxy-2-methyl-8-phenyl-3,6,7,8-tetrahydro-chromeno[7,8-d]imidazole] | 163 | 
2 | COCCO[C@@H]1c2ccc3c(nc(C)n3C)c2O[C@H](c2ccccc2)[C@H]1OC(=O)COC [Example 7, (6R,7S,8R)-7-(2-Methoxy-acetoxy)-6-(2-methoxy-ethoxy)-2,3-dimethyl-8-phenyl-3,6,7,8-tetrahydro-chromeno[7,8-d]imidazole] | 200 | > 50
3 | Cc1nc2c3c(ccc2n1C1CC1)[C@@H](O)[C@H](O)[C@@H](c1ccccc1)O3 [Example 17, (6R,7S,8R)-3-Cyclopropyl-6,7-dihydroxy-2-methyl-8-phenyl-3,6,7,8-tetrahydro-chromeno[7,8-d]imidazole] |  | < 50
4 | COCCO[C@@H]1c2ccc3c(nc(C)n3C)c2O[C@H](c2ccccc2)[C@H]1OC(=O)CN(C)C [Example 8, (6R,7S,8R)-7-(2-Dimethylamino-acetoxy)-6-(2-methoxy-ethoxy)-2,3-dimethyl-8-phenyl-3,6,7,8-tetrahydro-chromeno[7,8-d]imidazole] | 175 | > 50
5 | COCCO[C@@H]1c2ccc3c(nc(C)n3C)c2O[C@H](c2ccccc2)[C@H]1O [Example 1, (6R,7S,8R)-7-Hydroxy-6-(2-methoxy-ethoxy)-2,3-dimethyl-8-phenyl-3,6,7,8-tetrahydro-chromeno[7,8-d]imidazole] |  | > 50
6 | Cc1nc2c3c(ccc2n1C)[C@H]1OCCO[C@@H]1[C@@H](c1ccccc1)O3 [Example 6, (5S,6R,10R)-16,17-Dimethyl-6-phenyl-2,3,5,6,10,17-hexahydro-1,4,7-trioxa-15,17-diaza-cyclopenta[a]phenanthrene] | 307 | > 50
7 | Cc1nc2c3c(ccc2n1C)[C@@H](O)[C@H](O)[C@@H](c1ccccc1)O3 [Example 3, (6R,7S,8R)-6,7-Dihydroxy-2,3-dimethyl-8-phenyl-3,6,7,8-tetrahydro-chromeno[7,8-d]imidazole] | 262.5 | < 50
8 | CCO[C@@H]1c2ccc3c(nc(C)n3C)c2O[C@H](c2ccccc2)[C@H]1O [Example 4, (6R,7S,8R)-6-Ethoxy-7-hydroxy-2,3-dimethyl-8-phenyl-3,6,7,8-tetrahydro-chromeno[7,8-d]imidazole] | 222 | > 50
9 | COCCO[C@H]1c2ccc3c(nc(C)n3C)c2O[C@H](c2ccccc2)[C@H]1O [Example 2, (6S,7S,8R)-7-Hydroxy-6-(2-methoxy-ethoxy)-2,3-dimethyl-8-phenyl-3,6,7,8-tetrahydro-chromeno[7,8-d]imidazole] | 163 | < 50
10 | Cc1nc2c3c(ccc2n1C)[C@@H](OCC(F)F)[C@H](O)[C@@H](c1ccccc1)O3 [Example 9, (6R,7S,8R)-7-Hydroxy-6-(2,2-difluoro-ethoxy)-2,3-dimethyl-8-phenyl-3,6,7,8-tetrahydro-chromeno[7,8-d]imidazole] | 249 | > 50
11 | Cc1nc2c3c(ccc2n1C)[C@@H](OCCF)[C@H](O)[C@@H](c1ccccc1)O3 [Example 5, (6R,7S,8R)-6-(2-Fluoro-ethoxy)-7-hydroxy-2,3-dimethyl-8-phenyl-3,6,7,8-tetrahydro-chromeno[7,8-d]imidazole] | 226 | > 50

More lines, main results first:

Row | melting point [°C] | Compound | inhibition in vivo at 2 µmol/kg [1] [%]
12 | 260 | Cc1nc2c3c(ccc2[nH]1)[C@H]1OCCO[C@@H]1[C@@H](c1ccccc1)O3 [Example 16, (5S,6R,10R)-16-Methyl-6-phenyl-2,3,5,6,10,17-hexahydro-1,4,7-trioxa-15,17-diaza-cyclopenta[a]phenanthrene] | > 50
13 | 133 | COCCO[C@H]1c2ccc3c(nc(C4CC4)n3C)c2O[C@H](c2ccccc2)[C@H]1O [Example 22, (6S,7S,8R)-2-Cyclopropyl-7-hydroxy-6-(2-methoxy-ethoxy)-3-methyl-8-phenyl-3,6,7,8-tetrahydro-chromeno[7,8-d]imidazole] | 
14 | 213 | CC=Cn1c(C)nc2c3c(ccc21)[C@H]1OCCO[C@@H]1[C@@H](c1ccccc1)O3 [Example 15, (5S,6R,10R)-16-Methyl-6-phenyl-17-propenyl-2,3,5,6,10,17-hexahydro-1,4,7-trioxa-15,17-diaza-cyclopenta[a]phenanthrene] | > 50
15 | 157 | COCCO[C@@H]1c2ccc3c(nc(C4CC4)n3C)c2O[C@H](c2ccccc2)[C@H]1O [Example 21, (6R,7S,8R)-2-Cyclopropyl-7-hydroxy-6-(2-methoxy-ethoxy)-3-methyl-8-phenyl-3,6,7,8-tetrahydro-chromeno[7,8-d]imidazole] | 
16 | 117 | COCCO[C@@H]1c2ccc3[nH]c(C)nc3c2O[C@H](c2ccccc2)[C@H]1O [Example 13, (6R,7S,8R)-7-Hydroxy-6-(2-methoxy-ethoxy)-2-methyl-8-phenyl-3,6,7,8-tetrahydro-chromeno[7,8-d]imidazole] | 
17 | 117 | C=CCn1c(C)nc2c3c(ccc21)[C@@H](OCCF)[C@H](O)[C@@H](c1ccccc1)O3 [Example 14, (6R,7S,8R)-3-Allyl-7-hydroxy-6-(2-fluoro-ethoxy)-2-methyl-8-phenyl-3,6,7,8-tetrahydro-chromeno[7,8-d]imidazole] | 
18 | 183 | COCCO[C@@H]1c2ccc3c(nc(C)n3C3CC3)c2O[C@H](c2ccccc2)[C@H]1O [Example 18, (6R,7S,8R)-3-Cyclopropyl-7-hydroxy-6-(2-methoxy-ethoxy)-2-methyl-8-phenyl-3,6,7,8-tetrahydro-chromeno[7,8-d]imidazole] | < 50
19 | 79 | C=CCn1c(C)nc2c3c(ccc21)[C@@H](OCCOC)[C@H](O)[C@@H](c1ccccc1)O3 [Example 11, (6R,7S,8R)-3Allyl-7-hydroxy-6-(2-methoxy-ethoxy)-2-methyl-8-phenyl-3,6,7,8-tetrahydro-chromeno[7,8-d]imidazole] | < 50
20 | 218 | COCCO[C@H]1c2ccc3c(nc(C)n3C3CC3)c2O[C@H](c2ccccc2)[C@H]1O [Example 19, (6S,7S,8R)-3-Cyclopropyl-7-hydroxy-6-(2-methoxy-ethoxy)-2-methyl-8-phenyl-3,6,7,8-tetrahydro-chromeno[7,8-d]imidazole] | > 50
21 | 61 | CC=Cn1c(C)nc2c3c(ccc21)[C@@H](OCCOC)[C@H](O)[C@@H](c1ccccc1)O3 [Example 12, (6R,7S,8R)-7-Hydroxy-6-(2-methoxy-ethoxy)-2-methyl-8-phenyl-3-propenyl-3,6,7,8-tetrahydro-chromeno[7,8-d]imidazole] | 

From patent US20070244173A1, “6,7-Dihydroxy-8-Phenyl-3,6,7,8-Tetrahydro-Chromeno [7,8-d] Imidazole Derivatives and Their Use as Gastric Acid Secretion Inhibitors” (Altana Pharma AG, priority 2004, published 2007)
